Patent publication US10081615B2, “Sulfamate derivative compounds for use in treating or alleviating pain” (Bio-Pharm Solutions Co., Ltd., priority 2013, dated 2018)

Tested on: CFA-induced pain model
Test: Antiallodynic activity on Complete Freund's Adjuvant (CFA)-induced inflammatory pain model (von Frey)
Type: in vivo, Sprague-Dawley rats
Details: Rattus norvegicus, ip, 0.5 h, read-out: CFA model: effect (%) compared to control
Experimental: Male, Sprague-Dawley rats (200-220 g, Nara Bio, Korea) were habituated for 1 week before surgery and allowed free access to food and water throughout the experimentation. Room temperature and humidity were maintained at 24±2° C. and 50±10%, respectively.
CFA-induced inflammatory pain was induced by the procedure of Nagakura et al. (2003) and Gregory P. et al. (2010) with minor modifications. CFA (sigma, USA) was injected into the left plantar with a 100 ul volume under gaseous anesthesia with isoflurane and NO2 with a 4:4 flow ratio. Sham controls were injected with 100 ul of saline and preparation of the vehicle controls were identical to the group treated with compound, except for administration of vehicles without compound in the vehicle control group.
Tactile sensitivity (mechanical allodynia) was evaluated using von Frey monofilaments before and after treatment, and the animals were included in the study only if the withdrawal threshold value was less than 4 g. One week after surgery, CFA-infused animals (n=4˜6), sham-operated animals (n=12), and vehicle-operated animals (n=17) were tested for tactile sensitivity with von Frey monofilaments, with 3 trials for each animal. All animals were placed in a stainless steel mesh chamber and habituated for 30 min in the test cage. The tactile sensitivity for the ipsilateral hind paw was measured using the up-and-down method (Dixon, 1980) with seven von Frey monofilaments (0.4, 1, 2, 4, 6, 8, and 15 g) in 3 trials. The tactile sensitivity test was followed by Dixon's method (Dixon, 1980). The 50% paw withdrawal threshold for each paw was calculated using the following formula: [Xth] log=[vFr] log+ky where [vFr] is the force of the last von Frey used, k=0.2249 which is the average interval (in log units) between the von Frey monofilaments, and y is a value that depends upon the pattern of the withdrawal responses (Dixon, 1980).
The antiallodynic effect of the compound of Example was evaluated at the doses of 10, 30 and 60 mg/kg (n=4˜6), and were intraperitoneally administered in a volume of 5 ul/g by bodyweight in a vehicle of 30% (v/v) PEG. […]
The relative values compared to the sham (% control) were calculated and are shown in Table 4, which show an antiallodynic effect of the compound of examples in the CFA-induced pain model in rats.

SMILES | response vs control in vivo at 50 mg/kg
CC1(C)Oc2ccccc2C(COS(N)(=O)=O)O1 (stereo not drawn) [Example 72, Potassium (((2,2-dimethyl-4H-benzo[d][1,3]dioxin-4-yl)methoxy)sulfonyl)amide] | 67.1%

Same assay, conditions: ip; rat, intraperitoneal, 25 mg/kg administered, 0.5 h; read-out: CFA model: effect (%) compared to control

SMILES | response vs control in vivo at 25 mg/kg
NS(=O)(=O)OC[C@@H]1OC2(CCCCC2)Oc2ccccc21 [Example 10, ((R)-4H-spiro[benzo[d][1,3]dioxine-2,1′-cylcohexan]-4-yl)methyl sulfamate] | 37.2%
CC1(C)Oc2ccc(F)cc2C(COS(N)(=O)=O)O1 (racemic) [Example 54, (6-fluoro-2,2-dimethyl-4H-benzo[d][1,3]dioxin-4-yl)methyl sulfamate] | 82.9%
CCC1(CC)Oc2c(Cl)cccc2[C@@H](COS(N)(=O)=O)O1 [Example 29, ((S)-8-chloro-2,2-diethyl-4H-benzo[d][1,3]dioxin-4-yl)methyl sulfamate] | 43.9%
NS(=O)(=O)OCC1OC2(CCCCC2)Oc2ccc(Cl)cc21 (racemic) [Example 53, (6-chloro-4H-spiro[benzo[d][1,3]dioxine-2,1′-cyclohexan]-4-yl)methyl sulfamate] | 57.3%
COc1ccc2c(c1)C(COS(N)(=O)=O)OC(C)(C)O2 (racemic) [Example 57, (6-methoxy-2,2-dimethyl-4H-benzo[d][1,3]dioxin-4-yl)methyl sulfamate] | 39.1%

Same assay, conditions: ip; rat, intraperitoneal, 50 mg/kg administered, 0.5 h; read-out: CFA model: effect (%) compared to control

SMILES | response vs control in vivo at 50 mg/kg
CC1(C)Oc2ccc(Cl)cc2[C@@H](COS(N)(=O)=O)O1 [Example 47, ((S)-6-chloro-2,2-dimethyl-4H-benzo[d][1,3]dioxin-4-yl)methyl sulfamate] | 100%
CCC1(CC)Oc2ccccc2CC(COS(N)(=O)=O)O1 (racemic) [Example 18, (2,2-diethyl-4,5-dihydrobenzo[d][1,3]dioxepin-4-yl)methyl sulfamate] | 91.7%
CC1(C)Oc2c(Cl)cccc2[C@@H](COS(N)(=O)=O)O1 [Example 26, ((S)-8-chloro-2,2-dimethyl-4H-benzo[d][1,3]dioxin-4-yl)methyl sulfamate] | 34.2%
CC1(C)Oc2ccc(Cl)cc2C(COS(N)(=O)=O)O1 (racemic) [Example 48, (6-chloro-2,2-dimethyl-4H-benzo[d][1,3]dioxin-4-yl)methyl sulfamate] | 21.7%
CC1(C)Oc2cc(Cl)ccc2C(COS(N)(=O)=O)O1 (racemic) [Example 45, (7-chloro-2,2-dimethyl-4H-benzo[d][1,3]dioxin-4-yl)methyl sulfamate] | 33.1%
CC1(C)Oc2ccc(Cl)cc2[C@H](COS(N)(=O)=O)O1 [Example 46, ((R)-6-chloro-2,2-dimethyl-4H-benzo[d][1,3]dioxin-4-yl)methyl sulfamate] | 36.4%
NS(=O)(=O)OC[C@H]1OC2(CCCCC2)Oc2c(Cl)cccc21 [Example 35, ((S)-8-chloro-4H-spiro[benzo[d][1,3]dioxine-2,1′-cylcohexan]-4-yl)methyl sulfamate] | 15.5%
NS(=O)(=O)OCC1Cc2ccccc2OC2(CCCCC2)O1 (racemic) [Example 20, (4,5-dihydrospiro[benzo[d][1,3]dioxepine-2,1′-cyclohexan]-4-yl)methyl sulfamate] | 69%
CCC1(CC)Oc2ccccc2C(COS(N)(=O)=O)O1 (racemic) [Example 6, (2,2-diethyl-4H-benzo[d][1,3]dioxin-4-yl))methyl sulfamate] | 64.6%
CCC1(CC)Oc2ccc(Cl)cc2C(COS(N)(=O)=O)O1 (racemic) [Example 51, (6-chloro-2,2-diethyl-4H-benzo[d][1,3]dioxin-4-yl)methyl sulfamate] | 23.3%
NS(=O)(=O)OC[C@H]1OC2(CCCC2)Oc2ccccc21 [Example 8, ((S)-4H-spiro[benzo[d][1,d]dioxine-2,1′-cyclopentan]-4-yl)methyl sulfamate] | 74.8%
NS(=O)(=O)OCCC1OC2(CCCCC2)Oc2ccccc21 (racemic) [Example 16, 2-(4H-spiro[benzo[d][1.3]dioxine-2,1′-cyclohexan]-4-yl)ethyl sulfamate] | 38.9%
NS(=O)(=O)OC[C@H]1OC2(CCCC2)Oc2c(Cl)cccc21 [Example 32, ((S)-8-chloro-4H-spiro[benzo[d][1,3]dioxine-2,1′-cyclopentan]-4-yl)methyl sulfamate] | 51.9%

Tested on: SNL model
Test: Antiallodynic activity in the Chung model (SNL, Spinal Nerve Ligation; von Frey)
Type: in vivo, Sprague-Dawley rats
Details: Rattus norvegicus, po, 0.5 h, read-out: SNL model: effect (%) compared to control, rat, oral, 3.5 mg/kg administered, 0.5 h
Experimental: Male Sprague-Dawley rats (200-220 g, Orient Bio, Korea) were habituated for 1 week before the experiment and allowed free access to food and water throughout the experimentation. Room temperature and humidity were maintained at 24±2° C. and 50±10%, respectively. The neuropathic surgery (SNL, Spinal Nerve Ligation) model was done as described in Kim and Chung (1992). Briefly, an animal was put under gaseous anesthesia with isoflurane and NO2 with a 4:4 flow ratio. The left lumbar spinal nerves L5 and L6 were isolated and tightly ligated with 4-0 silk thread. The wound was treated with a gentamicin antibiotic solution (4 mg/kg, 4 ul/g by bodyweight), and the wound muscle was closed with Catgut® chrome 4/0 thread and the skin was closed with Dafilon 4/0 thread. Sham controls were prepared in the same manner with the spinal nerves were exposed, but no ligated L5 and L6 nerves. Preparation of the vehicle controls were identical to the group treated with compound, except for administration of vehicles without compound in the vehicle control group.
Tactile sensitivity (mechanical allodynia) was evaluated using von Frey monofilaments before and after treatment and animals the animals were included in the study only if the withdrawal threshold value was less than 4 g. One week after surgery, SNL-operated animals (n=4˜6), sham-operated animals (n=4˜10) and vehicle-operated animals (n=4˜13) were tested for tactile sensitivity with von Frey monofilaments with 3 trials in each animal. All animals were placed in a stainless steel mesh chamber and habituated for 30 min in the test cage. The tactile sensitivity for ipsilateral hind paw was measured using the up-and-down method (Dixon, 1980) with seven von Frey monofilaments (0.4, 1, 2, 4, 6, 8, and 15 g) in 3 trials. The tactile sensitivity test was followed by Dixon's method (Dixon, 1980). The 50% paw withdrawal threshold for each paw was calculated using the following formula: [Xth] log=[vFr] log+ky where [vFr] is the force of the last von Frey used, k=0.2249 which is the average interval (in log units) between the von Frey monofilaments, and y is a value that depends upon the pattern of withdrawal responses (Dixon, 1980).
All animals were fasted for 18 h before the administration of the compounds. The antiallodynic effect of the compounds were evaluated at the various doses (n=5˜6), orally administered in a volume of 5 ul/g by bodyweight in a vehicle of 30% (v/v) PEG 400 (Example 7) or 20% (v/v) Tween 80 (Examples 5 and 6) or saline. […]
The relative values compared to the sham group (% control) were calculated and are shown in Table 5, which show an antiallodynic effect of the test compounds in the SNL model in rats.

SMILES | response vs control in vivo at 3.5 mg/kg
CC1(C)Oc2ccccc2C(CCOS(N)(=O)=O)O1 (stereo not drawn) [Example 68, Sodium ((2-(2,2-dimethyl-4H-benzo[d][1,3]dioxin-4-yl)ethoxy)sulfonyl)amide] | 25%

Same assay, conditions: Rattus norvegicus, po, read-out: SNL model: effect (%) compared to control, rat, oral, 3.5 mg/kg administered, time not given

SMILES | response vs control in vivo at 3.5 mg/kg
CC1(C)Oc2ccc(Cl)cc2[C@H](COS(N)(=O)=O)O1 [Example 61, Sodium (R)-(((6-chloro-2,2-dimethyl-4H-benzo[d][1,3]dioxin-4-yl)methoxy)sulfonyl)amide] | 20.9%

Same assay, conditions: rat, oral, 3.5 mg/kg administered, 0.5 h

SMILES | SNL model: effect (%) compared to control
CC1(C)Oc2ccccc2[C@@H](COS([NH-])(=O)=O)O1.[Li+] [Example 73, Lithium (S)-(((2,2-dimethyl-4H-benzo[d][1,3]dioxin-4-yl)methoxy)sulfonyl)amide] | (13.5%, 0.5 h)

Same assay, conditions: rat, oral, 3.5 mg/kg administered, 0.5 h; read-out: SNL model: effect (%) compared to control

SMILES | response vs control in vivo at 3.5 mg/kg
CC1(C)Oc2ccccc2CC(COS(N)(=O)=O)O1 (racemic) [Example 17, (2,2-dimethyl-4,5-dihydrobenzo[d][1,3]dioxepin-4-yl)methyl sulfamate] | 16.8%

Same assay, conditions: rat, oral, 3.5 mg/kg administered, time not given; read-out: SNL model: effect (%) compared to control

SMILES | response vs control in vivo at 3.5 mg/kg
CCC1(CC)Oc2ccccc2C(CCOS(N)(=O)=O)O1 (racemic) [Example 14, 2-(2,2-diethyl-4H-benzo[d][1.3]dioxin-4-yl)ethyl sulfamate] | 37.9%
NS(=O)(=O)OCC1Cc2ccccc2OC2(CCCC2)O1 (racemic) [Example 19, (4,5-dihydrospiro[benzo[d][1,3]dioxepine-2,1′-cyclopentan]-4-yl)methyl sulfamate] | 33.3%

Tested on: not given
Test: not given
Details: not given

SMILES | melting point
CC1(C)Oc2ccccc2C(COS([NH-])(=O)=O)O1.[Na+] (stereo not drawn) (hydrate or solvate) [Example 60, Sodium (((2,2-dimethyl-4H-benzo[d][1,3]dioxin-4-yl)methoxy)sulfonyl)amide Trihydrate] | 81 to 86 °C
CC1(C)Oc2ccccc2[C@@H](COS([NH-])(=O)=O)O1.[Na+] (hydrate or solvate) [Example 59, Sodium (S)-(((2,2-dimethyl-4H-benzo[d][1,3]dioxin-4-yl)methoxy)sulfonyl)amide Trihydrate] | 51.2 to 52.2 °C
